The target of one experiment is Procathepsin L (Homo sapiens, UniProt P07711). Nature of the experiment: (§1) Enzyme Inhibition Assay: Enzyme activity is measured by observing the increase in fluorescence intensity caused by cleavage of a peptide substrate containing a fluorophore whose emission is quenched in the intact peptide.Assay buffer: 100 mM potassium phosphate pH 6.5, EDTA-Na 5 mM, Triton X-100 0.001%, DTT 5 mM.Enzymes (all at 1 nM): human and mouse Cathepsin S, Cat K, Cat B, Cat L.Substrate (20 μM): Z-Val-Val-Arg-AMC, except for Cat K which uses Z-Leu-Arg-AMC (both from Bachem).Z=Benzyloxycarbonyl.AMC=7-Amino-4-Methyl-Coumarin.DTT=dithiothreitol.Final volume: 100 μL.Excitation 360 nm, Emission 465 nm.Enzyme is added to the substance dilutions in 96-well microtitre plates and the reaction is started with substrate. Fluorescence emission is measured over 20 minutes, during which time a linear increase is observed in the absence of inhibitor.

In the next experiment the target is Cathepsin S (Homo sapiens, UniProt P25774). Described as §1.

Structures are written as SMILES.

Chain of Procathepsin L (P07711 whole entry): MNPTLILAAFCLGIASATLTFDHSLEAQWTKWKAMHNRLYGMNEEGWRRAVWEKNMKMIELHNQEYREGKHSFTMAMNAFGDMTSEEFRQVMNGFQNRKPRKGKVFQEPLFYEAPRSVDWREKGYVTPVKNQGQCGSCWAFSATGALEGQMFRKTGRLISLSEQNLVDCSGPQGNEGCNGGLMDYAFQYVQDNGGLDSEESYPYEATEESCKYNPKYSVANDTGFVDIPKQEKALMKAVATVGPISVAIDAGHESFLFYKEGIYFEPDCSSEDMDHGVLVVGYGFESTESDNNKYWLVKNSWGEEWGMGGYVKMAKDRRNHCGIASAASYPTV
Chain of Cathepsin S (P25774 whole entry): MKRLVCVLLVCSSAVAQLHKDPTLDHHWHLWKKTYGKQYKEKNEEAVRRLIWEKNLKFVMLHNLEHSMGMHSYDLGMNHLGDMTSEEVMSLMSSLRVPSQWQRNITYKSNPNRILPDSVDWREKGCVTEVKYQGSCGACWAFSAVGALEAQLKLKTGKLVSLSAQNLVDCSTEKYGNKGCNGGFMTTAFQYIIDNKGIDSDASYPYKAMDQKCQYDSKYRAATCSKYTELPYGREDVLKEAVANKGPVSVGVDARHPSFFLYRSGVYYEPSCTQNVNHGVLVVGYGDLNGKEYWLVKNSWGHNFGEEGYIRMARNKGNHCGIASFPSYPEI

Take `N#CC1(NC(=O)[C@@H]2C[C@@H](S(=O)(=O)c3ccc(Br)cc3Cl)CN2C(=O)C2(c3ncc(Cl)cc3F)CC2)CC1`: the IC50 (usually the point on the concentration scale where inhibition reaches its midpoint) against Procathepsin L is 0.0726 µM; against Cathepsin S, 0.000474 µM.
For `N#CC1(NC(=O)[C@@H]2C[C@@H](Sc3ncc(C(F)(F)F)cc3Cl)CN2C(=O)C2(c3ncc(Cl)cc3F)CC2)CC1` the same measures were greater than 25 µM and 1.03 µM.
On the same counts, the results for `N#CC1(NC(=O)[C@@H]2C[C@@H](S(=O)(=O)c3cc(C(F)(F)F)ccc3Cl)CN2C(=O)C2(c3ncc(Cl)cc3F)CC2)CC1` are 0.0568 µM and 0.000543 µM.
